Data reported in US20240124510A1, “Cyclic Glycoaminoacid Derivatives” (TFCHEM, priority 2021, published 2024).
Several values for one entry are separate records, joined by “and”; a condition that tells them apart may be missing. Equal entries are not always repeated.

Legend:
IL-6 [1] = test: IL-6 secretion in coculture of human aged fibroblasts and mature adipocytes (AM3D-FB2D, ELISA); format: cell-based; settings: for secretion of IL-6 in percentage of the coculture control condition, Values (%): individual replicates
From the text: (§1) In order to evaluate its effect on fibroblast matrix and its anti-inflammatory properties, the effect of compound 6 has been tested on an adipocytes-aged fibroblasts coculture model, mimicking the interactions between dermis and hypodermis in the skin and allowed to explore in parallel the biological effects of the products on two cellular targets.
(§2) • Experimental model: co-culture of human mature adipocytes cultured in 3D and human dermal fibroblasts cultured in 2D (AM3D-FB2D co-culture). This experimental model of AM3D-FB2D co-culture mimicked the interactions between dermis and hypodermis in the skin and allowed to explore in parallel the biological effects of the products on two cellular targets. • Donor characteristics: This study was performed on mature adipocytes and fibroblasts from two different donors (one donor for mature adipocytes and another donor for dermal fibroblasts). • Fibroblasts donor=person, BMI=28 kg/m^2 • Adipocytes donor=person, BMI=21.4 kg/m^2 • Treatment procedure: compound 6 was added to the co-culture medium daily for up to 6 days
(§3) Dermal fibroblasts were seeded in DMEM 10% FBS at 10000 cells/well. The day after, the adipocytes capsules of 50 μl were added in suspension above the fibroblasts and the medium was changed and replaced by a specific culture medium for the co-culture AM3D-FB2D. The formation of adipocytes capsules followed an internal standardized protocol. Briefly, the fully mature adipocytes were isolated from the hypodermis after digestion by collagenase. The isolated adipocytes were then washed with a wash buffer and encapsulated in a peptidic hydrogel to form 3D adipocytes capsules of 50 μl in size. Cells were incubated at 37° C. and 5% CO2 overnight for stabilization. Treatments were initiated at DO with a medium change at DO, D2, D3 and D5. The entire culture media of 24 h incubation was collected at D3 and D6, before being centrifugated and stored at −80° C. Each culture condition was done in triplicate.
(§4) The biochemical analyses on culture media were performed via ELISA using specific kits according to the manufacturer's recommendations: IL-6 (Duoset DY206, R&D Systems), and Hyaluronic Acid (HA) (Duoset, DY3614-05, R&D Systems and Procollagen I (Duoset, DY6220-05, R&D Systems) The results of HA and Procollagen I were normalized by fibroblasts cell number regarding the fact that these molecules were secreted mainly by fibroblasts. All the biochemical results were represented in percentage of the control condition.
To evaluate the effect of the compound 6 on inflammation, the extracellular concentrations of IL-6, that is secreted by the fibroblasts but mainly by the adipocytes, were measured at D3 and D6.

Hyaluronic Acid (HA) = test: Hyaluronic acid secretion in coculture of human aged fibroblasts and mature adipocytes (ELISA); format: cell-based; settings: for secretion of HA, normalized by fibroblasts number, in percentage of the coculture control condition, Values (%): individual replicates
From the text: as §1, §2, §3, §4
To evaluate the effect of the compound 6 on fibroblast's matrix, the extracellular concentrations of Hyaluronic Acid (HA), that is secreted only by the fibroblasts, were measured at D3 and D6.

IL-6 [2] = test: Extracellular secretion of IL-6 by preadipocytes in inflammatory condition (ELISA); format: cell-based, human; settings: for IL-6 secretion, Mean / IL-6 secretion, Values: normalized by cells number (DAPI); for IL-6 secretion, Values: individual values; for IL-6 secreted, normalized by cell number, in % of AcMC condition: preadipocytes/adipocytes
Description: Preadipocytes have been isolated from human female hypodermis (body mass index <30 kg/m2 and <45 years old). Preadipocytes have been cultured for 24 h in 100 μl of DMEM-10% Fetal Bovine Serum (FBS) in 96-well plates. Then cells were treated to induce their differentiation in a classical or an inflammatory environment for 13 days.
To induce the preadipocytes differentiation cells were incubated in a proadipogenic cocktail (PAC) including insulin, glucocorticoid, 3-isobutyl-1-methylxanthine (IBMX), and thiazolinedione in DMEM.
To induce a fibro-inflammatory environment, cells were treated with an activated human macrophage-conditioned medium (AcMC) prepared in RPMI medium. A treatment with Dexamethasone (DXM) at 100 nM was used as anti-inflammatory response control. At D0: preadipocytes have been treated in the following conditions: • “Undifferentiation”: DMEM+¼ RPMI medium • “Differentiation”: PAC+¼ RPMI medium • “AcMC” i.e. inflammatory condition: PAC+¼ AcMC • “AcMC+DXM”: PAC+[…] AcMC+anti-inflammatory DXM at 100 nM • “AcMc+compounds”: PAC+14 AcMC+compounds to be tested
All conditions have been performed in triplicate. The medium has been changed every 2 days for 13 days.
At D14: during the last 24 h of culture, the medium has been replaced by DMEM/F12 medium in all conditions, to collect cells' secretions.
After 13 days, the 24 h culture media of the different conditions have been collected at the end of the treatment period. The concentrations of IL-6, procollagen I and MCP1 have been evaluated by ELISA assays using specific kits (for IL-6: DY206, DuoSet ELISA, R&D Systems; for Procollagen I: DY6220-05, DuoSet ELISA, R&D Systems; for MCP1: DY279-05 DuoSet ELISA, R&D Systems) according to the manufacture's recommendations. Values have been normalized to the cell number determined by DAPI staining.
Quantity of IL-6 secreted in medium was measured and was normalized by cell number in each culture condition. Data are represented in percentage of proinflammatory control condition (AcMC condition).

N[C@H]1CCCN(CC(F)(F)[C@]2(O)O[C@H](CO)[C@H](O)[C@H](O)[C@H]2O)C1=O [Compound 6]
IL-6 secretion in percentage of the coculture control condition (IL-6 [1]; 2 mg/ml, D3): 72%
IL-6 secretion in percentage of the coculture control condition (IL-6 [1]; 2 mg/ml, D6): 53%
IL-6 secretion in percentage of the coculture control condition (IL-6 [1]; 3 mg/ml, D3): 73%
IL-6 secretion in percentage of the coculture control condition (IL-6 [1]; 3 mg/ml, D6): 61%
secretion of IL-6 in percentage of the coculture control condition, Mean (%) (IL-6 [1]; D3, 2 mg/ml): 72%
secretion of IL-6 in percentage of the coculture control condition, Values (%) (IL-6 [1]; D3, 2 mg/ml): 56% and 78% and 82%
secretion of IL-6 in percentage of the coculture control condition, Mean (%) (IL-6 [1]; D3, 3 mg/ml): 73%
secretion of IL-6 in percentage of the coculture control condition, Values (%) (IL-6 [1]; D3, 3 mg/ml): 75% and 63% and 79%
secretion of IL-6 in percentage of the coculture control condition, Mean (%) (IL-6 [1]; D6, 2 mg/ml): 53%
secretion of IL-6 in percentage of the coculture control condition, Values (%) (IL-6 [1]; D6, 2 mg/ml): 46% and 66% and 45%
secretion of IL-6 in percentage of the coculture control condition, Mean (%) (IL-6 [1]; D6, 3 mg/ml): 61%
secretion of IL-6 in percentage of the coculture control condition, Values (%) (IL-6 [1]; D6, 3 mg/ml): 59% and 54% and 71%
HA secretion, normalized by fibroblasts number, % of the control (Hyaluronic Acid (HA); 1 mg/ml, 3 days of treatment): 140%
HA secretion, normalized by fibroblasts number, % of the control (Hyaluronic Acid (HA); 1 mg/ml, 6 days of treatment): 189%
HA secretion, normalized by fibroblasts number, % of the control (Hyaluronic Acid (HA); 2 mg/ml, 6 days of treatment): 225%
HA secretion, normalized by fibroblasts number, % of the control (Hyaluronic Acid (HA); 3 mg/ml, 6 days of treatment): 164%
secretion of HA, normalized by fibroblasts number, in percentage of the coculture control condition, Mean (%) (Hyaluronic Acid (HA); D3, 1 mg/ml): 140%
secretion of HA, normalized by fibroblasts number, in percentage of the coculture control condition, Values (%) (Hyaluronic Acid (HA); D3, 1 mg/ml): 127% and 123% and 169%
secretion of HA, normalized by fibroblasts number, in percentage of the coculture control condition, Mean (%) (Hyaluronic Acid (HA); D3, 2 mg/ml): 90%
secretion of HA, normalized by fibroblasts number, in percentage of the coculture control condition, Values (%) (Hyaluronic Acid (HA); D3, 2 mg/ml): 96% and 93% and 80%
secretion of HA, normalized by fibroblasts number, in percentage of the coculture control condition, Mean (%) (Hyaluronic Acid (HA); D3, 3 mg/ml): 85%
secretion of HA, normalized by fibroblasts number, in percentage of the coculture control condition, Values (%) (Hyaluronic Acid (HA); D3, 3 mg/ml): 83% and 75% and 98%
secretion of HA, normalized by fibroblasts number, in percentage of the coculture control condition, Mean (%) (Hyaluronic Acid (HA); D6, 1 mg/ml): 189%
secretion of HA, normalized by fibroblasts number, in percentage of the coculture control condition, Values (%) (Hyaluronic Acid (HA); D6, 1 mg/ml): 172% and 157% and 237%
secretion of HA, normalized by fibroblasts number, in percentage of the coculture control condition, Mean (%) (Hyaluronic Acid (HA); D6, 2 mg/ml): 225%
secretion of HA, normalized by fibroblasts number, in percentage of the coculture control condition, Values (%) (Hyaluronic Acid (HA); D6, 2 mg/ml): 240% and 233% and 203%
secretion of HA, normalized by fibroblasts number, in percentage of the coculture control condition, Mean (%) (Hyaluronic Acid (HA); D6, 3 mg/ml): 164%
secretion of HA, normalized by fibroblasts number, in percentage of the coculture control condition, Values (%) (Hyaluronic Acid (HA); D6, 3 mg/ml): 121% and 213% and 159%
IL-6 secretion, Mean (IL-6 [2]; AcMC + 1 mg/ml): 84.0 % of AcMC condition
IL-6 secretion, Values (IL-6 [2]; AcMC + 1 mg/ml): 66.1 % of AcMC condition and 95.1 % of AcMC condition and 90.8 % of AcMC condition
IL-6 secretion, Mean (IL-6 [2]; AcMC + 2 mg/ml): 28.1 % of AcMC condition
IL-6 secretion, Values (IL-6 [2]; AcMC + 2 mg/ml): 25.5 % of AcMC condition and 26.8 % of AcMC condition and 31.9 % of AcMC condition
IL-6 secreted, normalized by cell number, in % of AcMC condition (IL-6 [2]; 1 mg/ml): 84%
IL-6 secreted, normalized by cell number, in % of AcMC condition (IL-6 [2]; 2 mg/ml): 28.1%
IL-6 secreted, normalized by cell number, in % of AcMC condition (IL-6 [2]; 2 mg/ml, listed as compound 6): 28.1% and 28%
